The values below come from patent publication US20240366618A1, “CGRP Antagonists for Treating Trigeminal Neuralgia” (Pfizer Ireland Pharmaceuticals, priority 2021, published 2024).

Data set [1] relates to classic trigeminal neuralgia. To be noted: patients with classic trigeminal neuralgia; cited from earlier work.
The subject of data set [2] is refractory atypical trigeminal neuralgia. Kind of data set: Case study: oral rimegepant in one patient with refractory atypical trigeminal neuralgia. It is filed as in vivo, human. Also noted: key to Barrow Neurological Institute (BNI) pain intensity score: II: defined as no pain on medication. To be noted: for adverse effects / tolerability / treatment efficacy in words: treatment period of six months. The source says:
In this study, refractory atypical trigeminal neuralgia was successfully treated using rimegepant, a novel oral calcitonin gene-related peptide (CGRP) antagonist. The patient experienced a decrease in pain from seven to nine out of 10 to 0 out of 10 within one day of therapy initiation. […] Thus, this case illustrates the promise of CGRP antagonist therapy as a novel treatment for trigeminal neuralgia, including atypical trigeminal neuralgia.
A person with a 5-year history of TN presented with episodic sharp, stabbing and constant burning pain along the V2 nerve distribution. Their pain was triggered by sensation on their upper right teeth, including wind, mastication, and extreme-temperature fluids. Their self-reported pain score ranged from seven to nine out of 10, and their Barrow Neurological Institute (BNI) pain intensity score was rated IV out of V, defined as inadequate pain control with medication. At presentation, their pain regimen consisted of 300 mg oxcarbazepine per day, up to eight 15 mg tablets of oxycodone per day, and 10 mcg per hour transdermal buprenorphine patch. On neurological exam, sensation was intact to light touch bilaterally except along the right nasolabial fold, and grimace was symmetric. The patient experienced impairment in ability to perform daily activities, such as eating, working, and speaking. Other associated symptoms included headache, fatigue, and significant weight loss.
Prior to presentation, the patient unsuccessfully tried several medications for pain control, including oxcarbazepine, meperidine, carisoprodol, propranolol, pregabalin, sumatriptan, and ergot. They also failed medical cannabinoids, oxygen therapy, trigger point injections, and sphenopalatine nerve blockades. They underwent four surgical procedures at outside institutions, including Gamma Knife radiosurgery (37 months prior to presentation), right balloon rhizotomy (31 months prior to presentation), radiofrequency ablation (22 months prior to presentation), and a V2-3 radiofrequency rhizotomy (14 months prior to presentation).
Given their sharp/stabbing pain, we offered them a microvascular decompression (MVD).
After multiple trials of different medications for six years after their MVD, the patient was started on 75 mg of rimegepant per day. Within 12 hours of their first dose, their self-reported pain score improved to 0 out of 10. […] They rarely had mild (2 out of 10) pain, which was controlled with 1 mg buprenorphine. Their BNI pain intensity score was reduced to II, defined as no pain on medication.

The test system of data set [3] is migraine. Kind of data set: Three double-blind, placebo-controlled BHV-3000 migraine studies. The following applies: 75 mg dose. The data set is classed as in vivo, human.
Data set [4] can be described thus: Ongoing long-term safety study of rimegepant. To be noted: 75 mg dose; preliminary data. The data set is classed as in vivo, human.
Data set [5] has as its system migraine. The following applies: cited from earlier work.
Data set [6] deals with trigeminal neuralgia. The following applies: cited from earlier work.
Setting [7] is: 75 mg per day, listed as Rimegepant.
Where [8] appears, read: acute migraine treatment trial, fast-dissolve orally disintegrating tablet (ODT) formulation.

Entries after “also recorded” stand apart in the source; their conditions may differ.

For the molecule `NC(=O)N1c2ccccc2C=Cc2ccccc21` [carbamazepine], the “response rates with initial therapy” value in data set [1] was “approximately 70%”.
Turning to `NC(=O)N1c2ccccc2CC(=O)c2ccccc21` [oxcarbazepine], the “response rates with initial therapy” value in data set [1] was “approximately 70%”.
Regarding `N[C@@H]1c2cccnc2[C@H](OC(=O)N2CCC(n3c(=O)[nH]c4ncccc43)CC2)CC[C@H]1c1cccc(F)c1F` [rimegepant, (5S,6S,9R)-5-amino-6-(2,3-difluorophenyl)-6,7,8,9-tetrahydro-5H-cyclohepta[b]pyridine-9-yl-4-(2-oxo-2,3-dihydro-1H-imidazo[4,5-b]pyridine-1-yl)piperidine-1-carboxylate], the “time after first dose until self-reported pain score improved to 0 out of 10” value in data set [2] (75 mg of rimegepant per day) is at most 12 h. Also, the self-reported pain score in data set [2] (75 mg of rimegepant per day, within 12 hours of first dose, before treatment seven to nine out of 10) was 0 out of 10. Besides, in data set [2] (on 75 mg rimegepant per day, before treatment IV out of V), the “Barrow Neurological Institute (BNI) pain intensity score” value was “II”. For the same molecule, in data set [2] (oral rimegepant), the “time after therapy initiation until pain decreased to 0 out of 10” value is recorded as “one”. For the same molecule, the mood and cognition entry in data set [2] (patient-reported, six-month treatment period) is “drastic improvement in mood and cognition”. The “rare mild pain during treatment” value in data set [2] (six-month treatment period, 75 mg per day, controlled with 1 mg buprenorphine) was 2 out of 10. Further, the “adverse effects / tolerability” value is “no significant adverse effects” in data set [2] (75 mg per day); “well tolerated” in data set [2] (setting [7]); “lack of adverse effects” in data set [2] (75 mg per day, listed as rigemepant). The “treatment efficacy in words” value is “continues to be efficacious; also recorded: mostly had no pain” in data set [2] (75 mg per day) and “maintains efficacy over a period of six months” in data set [2] (setting [7]). The pain in data set [2] (within one day of therapy initiation, before treatment seven to nine out of 10) is listed as 0 out of 10. In addition, the “efficacy for the treatment of migraine in words” value in data set [3] was “effective”. The tolerability in words result in data set [4] is “well tolerated”. The “time postdose at which statistically significant benefit for pain relief was demonstrated” value in data set [5] (setting [8]) was 60 min. The “time postdose at which statistically significant benefit on achieving pain freedom was demonstrated” value in data set [5] (setting [8]) was 90 min. In addition, the “safety profile in words” value in data set [5] (migraine trials) is on record as “favorable safety profile”. In data set [5] (orally administered, preventive and acute treatment), the “efficacy in migraine in words” value was “proven efficacy in the preventive and acute treatment of migraine”.

B1: erenumab: an injected anti-CGRP monoclonal antibody (antibody, chains of the INN, looked up, V domains shown)
VH: QVQLVESGGGVVQPGRSLRLSCAASGFTFSSFGMHWVRQAPGKGLEWVAVISFDGSIKYSVDSVKGRFTISRDNSKNTLFLQMNSLRAEDTAVYYCARDRLNYYDSSGYYHYKYYGMAVWGQGTTVTVSS
VL: QSVLTQPPSVSAAPGQKVTISCSGSSSNIGNNYVSWYQQLPGTAPKLLIYDNNKRPSGIPDRFSGSKSGTSTTLGITGLQTGDEADYYCGTWDSRLSAVVFGGGTKLTVL
With B1, in data set [6] (in vivo), the “patients reporting constipation and/or injection site reaction” value is reported as “three” and the “side effects in words” value was “minimal”. In addition, the “patients with significant decrease in trigeminal neuralgia pain” value in data set [6] (injected erenumab) is “nine”. In addition, the “patients reporting complete pain resolution” value in data set [6] (of 10 patients treated with erenumab) is given as “five”.
